Structures can show the parent of a compound that is named as a salt.
What was measured:
Keap1/NRF2 = biological target: T1, Keap1/NRF2 (Homo sapiens, UniProt Q14145); assay: NRF2-Keap1 FP Assay (Kelch domain (321-609) of Keap1, TAMRA-labeled NRF2 ETGE peptide); assay type: binding; conditions: Keap1 (321-609) 20 nM, Tamra labeled peptide 8 nM
T1 construct: Keap1 (321-609) is diluted to 40 nM (2×) in 1× assay buffer
Method in brief: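 Fluorescence polarization competition: Keap1 Kelch (321-609) at 20 nM final and TAMRA-ETGE 16-mer peptide at 8 nM final with 3-fold compound dilutions, 1 h room temperature in Tris pH 8.0 buffer (NaCl, MgCl2, DTT, CHAPS, BSA). mP normalized to protein+peptide and peptide-alone controls; pIC50 by four-parameter fit.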

NRF2/Keap1 = biological target: T2, NRF2/Keap1 (Homo sapiens, UniProt Q14145); assay: NRF2-Keap1 TR-FRET Low Protein Assay (full length NRF2 and full length Keap1); assay type: binding; conditions: low protein: 1.25 nM Keap1 FlagHis, 2.5 nM biotin-NRF2 added
T2 construct: full length NRF2 protein and full length Keap1 protein (Keap1 exists a dimer) are used
From the text: In the NRF2-Keap1 TR-FRET (time-resolved fluorescence resonance energy transfer) low protein assay, full length NRF2 protein and full length Keap1 protein (Keap1 exists a dimer) are used. The assay detects a compound's ability to displace the binding of Keap1 FlagHis with biotinylated Avi-NRF2 protein. Biotin-NRF2 binds to streptavidin-europium (a component of the detection mix) and Keap1 FlagHis is recognized by anti-Flag APC (allophycocyanin) antibody (also a component of the detection mix). If binding occurs between the two proteins, there will be an energy transfer from the Eu+3 (donor) at 615 nm to the APC (acceptor) at 665 nm. A potential NRF2 inhibitor will cause a reduction in the TR-FRET signal by interfering with the binding of Keap1 to NRF2.
Ten nanoliters of 100× compound dose response curves (serial 3-fold dilutions) in DMSO are stamped using an Echo liquid handling system (Labcyte) into 384-well, low volume, black assay plates (Greiner, #784076), with DMSO in columns 6 and 18. An additional 90 nl DMSO is added to each well, to bring the total volume to 100 nl per well. The top concentration of compound is located in columns 1 and 13, with the serial dilutions going across the row. All reagents are diluted in assay buffer (50 mM Tris, pH 8.0, 5 mM MgCl2, 100 mM NaCl, 0.005% BSA, 1 mM DTT, and 2 mM CHAPS. The BSA, DTT, and CHAPS are added to the assay buffer on the day of assay. Using a Multidrop Combi (Thermo Electron Corporation) equipped with a metal tip dispenser, 5 ul of 1.25 nM Keap1 FlagHis protein is added to all wells of the compound plate, with the exception of the wells in column 18. Wells in column 18 receive 5 ul of assay buffer instead. Plates are centrifuged at 500 rpm for 1 minute, covered with a plate lid, and incubated at 37° C. for 2.25 hours. Plates are then removed from the incubator and allowed to cool to RT for 15 minutes. Five microliters of 2.5 nM biotin-NRF2 protein is then added to all wells of the plates and the plates are spun at 500 rpm for 1 minute, followed by incubating at 4° C. for 1.25 hours. The plates are then allowed to warm to RT for 15 minutes, followed by the addition of 10 ul of detection mix (1 nM Streptavidin Eu+ W1024 and 5 ug/ml mouse anti-DYKDDDDK IgG conjugated to SureLight APC antibody; both from Columbia Biosciences) to all wells. Plates are spun at 500 rpm for 1 minute, incubated for 1 hour at RT, and read on an Envision plate reader using a 320 nm excitation filter and 615 nm and 665 nm emission filters. Compound response (% inhibition) and potency (pIC50) are calculated based on the ratio of the two emissions (665 nm/615 nm) and then the transformed data is normalized against controls in the assay (control 1=1% DMSO in the presence of NRF2 and Keap1 protein and control 2=1% DMSO in the presence of only the NRF2 protein). Data analysis is handled using the software package Abase XE (Surrey, United Kingdom). The % inhibition values are calculated from the ratio (transformed) data by the equation: 100−(100*(compound response-average control 2)/(average control 1−average control 2)). For calculation of pIC50s, Abase XE uses a four parameter equation.

[1] = test system: NQO1 specific enzyme activity in BEAS-2B cells; assay: BEAS-2B NQO1 MTT Assay; assay type: cell-based; conditions: Homo sapiens, BEAS-2B, 48 h, NQO1 specific activity induction
Method in brief: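 BEAS-2B cells exposed to compound for 48 h at 37 °C, 5% CO2, then lysed. NQO1 activity in crude lysate read kinetically by MTT cocktail absorbance at 570 nm over 30 min. pEC50 from ΔOD/min versus log concentration, 3-parameter fit.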

T2 sequence (Q14145 whole entry): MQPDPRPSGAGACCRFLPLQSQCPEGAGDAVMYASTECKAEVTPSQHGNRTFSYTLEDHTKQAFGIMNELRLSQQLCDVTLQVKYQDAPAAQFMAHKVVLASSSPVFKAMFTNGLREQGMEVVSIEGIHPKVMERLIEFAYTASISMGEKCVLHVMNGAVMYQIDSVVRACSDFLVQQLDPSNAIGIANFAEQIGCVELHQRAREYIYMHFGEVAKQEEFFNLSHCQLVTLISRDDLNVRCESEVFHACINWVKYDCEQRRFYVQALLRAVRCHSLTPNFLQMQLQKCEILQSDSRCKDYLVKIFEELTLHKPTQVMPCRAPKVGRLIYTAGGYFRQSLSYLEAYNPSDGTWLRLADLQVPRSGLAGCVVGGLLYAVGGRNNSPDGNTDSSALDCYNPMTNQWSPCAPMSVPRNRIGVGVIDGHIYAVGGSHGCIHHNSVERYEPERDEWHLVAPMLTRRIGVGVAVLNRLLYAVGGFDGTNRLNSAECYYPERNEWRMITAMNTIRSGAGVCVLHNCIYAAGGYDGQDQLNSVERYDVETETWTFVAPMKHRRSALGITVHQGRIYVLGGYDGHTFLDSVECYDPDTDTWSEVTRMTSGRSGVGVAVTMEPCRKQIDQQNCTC
T1 sequence (Q14145 321-609): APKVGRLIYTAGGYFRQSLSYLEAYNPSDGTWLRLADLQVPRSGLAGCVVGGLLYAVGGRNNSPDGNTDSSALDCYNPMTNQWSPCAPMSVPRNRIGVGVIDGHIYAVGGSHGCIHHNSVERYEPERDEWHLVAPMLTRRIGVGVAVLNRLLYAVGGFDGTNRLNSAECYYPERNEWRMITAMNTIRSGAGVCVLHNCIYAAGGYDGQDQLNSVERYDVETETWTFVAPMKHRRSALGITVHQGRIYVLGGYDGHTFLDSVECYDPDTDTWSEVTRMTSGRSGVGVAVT

| IC50 (Keap1/NRF2) [nM] | IC50 (NRF2/Keap1) [nM] | Compound | EC50 [1] [nM] |
| --- | --- | --- | --- |
| 100 to 1000 | 10 to 100 | Cn1cc([C@@H]2C[C@H]2c2c(C(=O)O)cnn2-c2cccc(C3CCCN(CCc4ccccc4)C3)c2)nn1 (stereo partly drawn) [Example 29, 5-((1R,2R)-2-(1-Methyl-1H-1,2,3-triazol-4-yl)cyclopropyl)-1-(3-(1-phenethylpiperidin-3-yl)phenyl)-1H-pyrazole-4-carboxylic Acid, Hydrochloride] | 1000 to 10000 |
| 100 to 1000 | 10 to 100 | CCC[C@@H]1CCCCN1C(=O)N1CCCC(c2cccc(-n3ncc(C(=O)O)c3[C@@H]3C[C@H]3c3cn(C)nn3)c2)C1 (stereo partly drawn) [Example 34, 5-((1R,2R)-2-(1-Methyl-1H-1,2,3-triazol-4-yl)cyclopropyl)-1-(3-(1-((R)-2-propylpiperidine-1-carbonyl)piperidin-3-yl)phenyl)-1H-pyrazole-4-carboxylic Acid] | 1000 to 10000 |
| 10 to 100 | < 10 | Cn1cc([C@@H]2C[C@H]2c2c(C(=O)O)cnn2-c2cccc(C3CCCN(S(=O)(=O)c4ccccc4)C3)c2)nn1 (stereo partly drawn) [Example 30, 5-((1R,2R)-2-(1-methyl-1H-1,2,3-triazol-4-yl)cyclopropyl)-1-(3-(1-(phenylsulfonyl)piperidin-3-yl)phenyl)-1H-pyrazole-4-carboxylic Acid] | 1000 to 10000 |

Reference: patent publication US10351530B2, “Arylcyclohexyl pyrazoles as NRF2 regulators” (GlaxoSmithKline Intellectual Property Development Limited, priority 2015, dated 2019)
